What was measured:
[1] = test system: HEK293 (RIG-I+)-IFNβ-fLuc cells; assay: Cell immunogenicity evaluation (luciferase reporter); format: cell-based; conditions: luciferase mRNA capped with the cap analog, 200 ng per well, 5 hours, compared with Jena-ARCA
Method: HEK293 (RIG-I^+)-IFNβ-fLuc cells were seeded at 1×10^4 cells per well in a 96-well culture plate and cultured for 24 hours for attachment. Each well was treated with transfection reagent (catalog #Lipofectamine MessengerMax, commercially available from Thermo Fisher, 0.15 μL per well) and samples (200 ng per well). The cells were incubated in a 37° C. incubator with 5% carbon dioxide for 5 hours. Next, 100 µL of signal-activating fluorescence detection reagent (One-Glo Luciferase) was added to each well and incubated at room temperature for 5 minutes to measure luciferase activity. Next, 180 μL of the reaction mixture was pipetted, and the fluorescence values were recorded using a microplate reader (GloMax Microplate Reader).

carrier RNA [2] = assay: Capping efficiency evaluation (1) using anti-cap antibody; conditions: Anti-7-methylguanosine (m7G)-Cap mAb, compared with commercially available ARCA
Method: Nuclease-free water was added into the lyophilized carrier RNA to obtain an RNA stock solution (with a concentration of 2 μg/L). Next, the RNA stock solution with various cap analogs (Compound (3) and Jena-ARCA cap analog, with trade number #NU-855L, commercially available from Jena Bioscience) was heated individually at 80° C. for 2 minutes, and then cooled at 0° C. for 5 minutes. Next, the result was placed on a nitrocellulose membrane and exposed to UV illumination to obtain a crosslinked RNA sample.
Then, 2.5% skim milk solution was added to block the nitrocellulose membrane with crosslinked RNA sampleat room temperature for 30 minutes. Thereafter, the primary antibody (Anti-7-methylguanosine (m7G)-Cap mAb) was diluted with the 2.5% skim milk solution and incubated at room temperature for 1 hour. Next, the sample was washed three times with TBST buffer (10 minutes each time). The result was reacted with chemiluminescent reagent (Femto) for 1-3 minutes. Finally, an image analysis of the result was performed via a chemiluminescent imaging system (Fujifilm LAS 4000).

HEK293 cells = assay: Transfection efficiency evaluation (luciferase activity); format: cell-based; conditions: luciferase mRNA capped with the cap analog, 50 ng per well, 5 hours, compared with Jena-ARCA
Method: Nuclease-free water was added to the lyophilized carrier RNA to obtain an RNA stock solution (with concentration of 2 μg/L). Next, deionized water (0.1 mL) and RNA stock solution (10 μL) were mixed with cap analogs (compound (3), compounds (25), (33) to (35), and Jena-ARCA capping analog (number #NU-855L, commercially available from Jena Bioscience)) individually to obtain the samples.
HEK293 cells were seeded at 4×10^4 cells per well in a 96-well culture plate and cultured for 24 hours for attachment. Next, each well was treated with transfection reagent (catalog #Lipofectamine MessengerMax, commercially available from Thermo Fisher, 0.3 μL per well) and samples (50 ng per well). The cells were incubated in a 37° C. incubator with 5% carbon dioxide for 5 hours. Subsequently, 100 μL of signal-activating fluorescence detection reagent (One-Glo Luciferase) was added to each well and incubated at room temperature for 5 minutes to measure luciferase activity. Then, 100 μL of the reaction mixture was pipetted and the fluorescence values were recorded using a microplate reader (GloMax Microplate Reader).

carrier RNA [3] = assay: Capping efficiency evaluation (2) using IP-RP-UPLC (1); conditions: UV260
Method: Nuclease-free water was added into the lyophilized carrier RNA to obtain an RNA stock solution (with a concentration of 2 μg/L). Next, deionized water (0.1 mL) and RNA stock solution (10 μL) were mixed with cap analogs (compound (3) and Jena-ARCA cap analog (product number #NU-855L, commercially available from Jena Bioscience)) individually to obtain the samples.
Next, the sample (10 μL) was injected into a column to perform ion-pair reverse-phase ultra-performance liquid chromatography (IP-RP UPLC) using the solution gradient outlined in Table 6 (45 minutes). The absorbance at the UV260 wavelength was monitored. The column used was an oligonucleotide column (Acquity Premier Oligonucleotide C18, manufactured and sold by Waters Corp). A water-based buffer solution (triethylamine acetate buffer, pH 7.0, concentration 100 mM) was used as Solution A, and an acetonitrile (ACN)-based buffer solution (composed of Solution A and ACN in a 3:1 volume ratio) was used as Solution B.

40-nt mRNAs = assay: Capping efficiency evaluation (3) using IP-RP-UPLC, 40-nt mRNAs from IVT; format: biochemical; conditions: 40-nt mRNAs by IVT with T7 enzyme, UV 260 nm
Method: mRNA was produced using in vitro transcription (IVT) technology with cap analogs of Compound (25), (33) to (35) of the disclosure herein, as well as the TriLink CleanCap cap analog (product number #N-7113). The DNA template used in this process consisted of 40-nucleotide (nt) fragments, and mRNA was synthesized through an enzymatic reaction using T7 enzyme to produce 40-nt mRNAs.
Nuclease-free water was added to the lyophilized carrier RNA to obtain an RNA stock solution (with concentration of 2 μg/L). Deionized water (0.1 mL) and RNA stock solution (10 μL) were then mixed with the 40-nt mRNAs obtained by aforementioned cap analogs to obtain the samples.
Next, 10 μL of each sample was injected into a column and analyzed using ion-pair reversed-phase ultra-performance liquid chromatography (IP-RP UPLC) (45 minutes) according to the solution gradient listed in Table 7. The absorbance value of UV 260 nm was monitored, and the capping efficiency (%) was evaluated based on the obtained results, as shown in Table 8. The column used for the analysis was an oligonucleotide column (Acquity Premier Oligonucleotide C18, manufactured and sold by Waters Corp). A water-based buffer solution (triethylammonium acetate buffer, pH 7.0, concentration 100 mM) was used as Solution A, while an acetonitrile (ACN)-based buffer solution (a mixture of Solution A and acetonitrile in a 3:1 volume ratio) was used as Solution B.

T7 enzyme = T7 enzyme (Escherichia phage T7, UniProt P00573); assay: Evaluation of mRNA yield by in vitro transcription (IVT) with cap analogs; format: biochemical; conditions: input DNA 5 μg
Method: mRNA was produced using in vitro transcription (IVT) technology with cap analogs of Compound (25), (26) and (33) to (35) of the disclosure, as well as the TriLink CleanCap cap analog (product number #N-7113). First, the DNA template plasmid required for IVT was prepared, followed by an enzymatic reaction using T7 enzyme to synthesize mRNA.

T7 enzyme, sequence (P00573 whole entry): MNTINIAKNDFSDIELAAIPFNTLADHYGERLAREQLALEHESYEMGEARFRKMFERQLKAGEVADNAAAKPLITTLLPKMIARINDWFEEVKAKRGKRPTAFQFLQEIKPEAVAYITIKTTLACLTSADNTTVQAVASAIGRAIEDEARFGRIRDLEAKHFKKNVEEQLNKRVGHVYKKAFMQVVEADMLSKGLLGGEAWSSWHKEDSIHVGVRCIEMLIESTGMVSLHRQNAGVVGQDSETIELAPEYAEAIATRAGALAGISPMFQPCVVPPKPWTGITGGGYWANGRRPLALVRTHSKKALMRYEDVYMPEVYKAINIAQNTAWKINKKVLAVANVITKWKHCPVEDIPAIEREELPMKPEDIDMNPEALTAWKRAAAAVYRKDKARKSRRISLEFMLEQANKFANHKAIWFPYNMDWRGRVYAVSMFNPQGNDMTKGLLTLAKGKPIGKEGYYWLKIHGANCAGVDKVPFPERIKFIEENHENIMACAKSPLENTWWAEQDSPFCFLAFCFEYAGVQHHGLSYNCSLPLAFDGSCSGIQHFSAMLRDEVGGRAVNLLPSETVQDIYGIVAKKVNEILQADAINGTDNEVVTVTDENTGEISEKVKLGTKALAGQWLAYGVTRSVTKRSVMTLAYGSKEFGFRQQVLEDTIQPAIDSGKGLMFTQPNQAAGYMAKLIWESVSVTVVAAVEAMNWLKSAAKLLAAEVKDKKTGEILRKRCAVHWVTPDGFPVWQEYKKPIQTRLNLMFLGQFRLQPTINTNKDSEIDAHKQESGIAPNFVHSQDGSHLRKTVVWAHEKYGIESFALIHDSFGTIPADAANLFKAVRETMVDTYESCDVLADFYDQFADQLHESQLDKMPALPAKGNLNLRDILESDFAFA

immune response (luciferase activity) [1] | SMILES | capping capability (chemiluminescent image analysis) (carrier RNA [2]) | nucleic acid translation and protein expression (luciferase activity) (HEK293 cells) | capping efficiency (carrier RNA [3]) | Capping efficiency (%) (40-nt mRNAs) | mRNA (T7 enzyme) [µg]
lower immune response | COC1[C@@H]2OC[C@]1(COP(=O)(O)OP(=O)(O)OP(=O)(O)OC[C@H]1O[C@@H](n3cnc4c(=O)[nH]c(N)nc43)[C@@H](O)C1O)O[C@H]2n1c[n+](C)c2c(=O)[nH]c(N)nc21 (stereo partly shown) [Compound (3)] | comparable to that of commercially available ARCA | superior nucleic acid translation and protein expression | approximately 60.8% | – | –
– | CO[C@@H]1C(O)[C@H](n2c[n+](C)c3c(=O)[nH]c(N)nc32)O[C@@H]1COP(=O)(O)OP(=O)(O)OP(=O)(O)OC[C@]12CN(C)[C@@H](C1OP(=O)(O)OC[C@H]1O[C@@H](n3cnc4c(=O)[nH]c(N)nc43)[C@@H](O)C1O)[C@H](n1cnc3c(N)ncnc31)O2 (stereo partly shown) [Compound (25)] | – | superior nucleic acid translation and protein expression | – | 71.3 | 167
– | COC1[C@@H](COP(=O)(O)OP(=O)(O)OP(=O)(O)OC[C@]23CN(S(C)(=O)=O)[C@@H](C2OP(=O)(O)OC[C@H]2O[C@@H](n4cnc5c(=O)[nH]c(N)nc54)[C@@H](O)C2O)[C@H](n2cnc4c(N)ncnc42)O3)O[C@@H](n2c[n+](C)c3c(=O)[nH]c(N)nc32)[C@H]1O (stereo partly shown) [Compound (26)] | – | – | – | – | 95
– | CO[C@@H]1C2OC[C@]1(COP(=O)(O)OP(=O)(O)OP(=O)(O)OC[C@H]1O[C@@H](n3cnc4c(N)ncnc43)[C@@H](OC)C1OP(=O)(O)OC[C@H]1O[C@@H](n3cnc4c(=O)[nH]c(N)nc43)[C@@H](O)C1O)O[C@H]2n1c[n+](C)c2c(=O)[nH]c(N)nc21 (stereo partly shown) [Compound (33)] | – | – | – | 100 | 134
– | CNc1ncnc2c1ncn2[C@@H]1O[C@H](COP(=O)(O)OP(=O)(O)OP(=O)(O)OC[C@@]23CN(S(C)(=O)=O)C([C@H](n4c[n+](C)c5c(=O)[nH]c(N)nc54)O2)[C@H]3OC)C(OP(=O)(O)OC[C@H]2O[C@@H](n3cnc4c(=O)[nH]c(N)nc43)[C@@H](O)C2O)[C@@H]1OC (stereo partly shown) [Compound (35)] | – | – | – | 81.4 | 138
– | CO[C@H]1[C@@H](O)[C@H](n2c[n+](C)c3c(=O)[nH]c(N)nc32)O[C@@H]1COP(=O)(O)OP(=O)(O)OP(=O)(O)OC[C@H]1O[C@@H](n2cnc3c(=O)[nH]c(N)nc32)[C@H](O)[C@@H]1O [Jena-ARCA, reference compound] | – | – | approximately 63% | – | –

Source: patent US20250230184A1, “COMPOUND, PHARMACEUTICAL COMPOSITION, KIT FOR CAPPED RNA TRANSCRIPT, AND METHOD FOR IN VITRO” (Industrial Technology Research Institute, priority 2023, published 2025)
